{"source": "paper PMC10208570", "about": "“Peptidomimetic antibiotics disrupt the lipopolysaccharide transport bridge of drug-resistant Enterobacteriaceae” (Science Advances, 2023)", "key": {"[1]": {"test_system": "E. coli ATCC 25922 (parent / WT)", "assay": "microbe, parasite or virus in culture", "details": "for MIC: Escherichia coli", "procedure": "(§1) MIC assays [Clinical and Laboratory Standards Institute (CLSI) methodology] and serial passage studies were performed as described by Luther et al. ([6]). […] Resistant mutants were isolated, and their MIC values were determined and sent to Microbes NG (Birmingham, United Kingdom) for whole-genome sequencing and bioinformatic analysis."}, "[2]": {"test_system": "E. coli ATCC 25922 LptA Q62L mutant", "assay": "microbe, parasite or virus in culture", "details": "for MIC: Escherichia coli", "procedure": "as §1"}, "[3]": {"test_system": "K. pneumoniae 968733 (CST-R)", "assay": "MIC assay (CLSI)", "format": "cell-based, Klebsiella pneumoniae", "procedure": "as §1"}, "human red blood cells": {"test_system": "human red blood cells", "assay": "Haemolysis", "format": "cell-based", "details": "PBS-washed human red blood cells; 1 h at 200 mg/liter, 37°C; OD 540 nm; versus 100% lysis control 2.5% Triton X-100; biological replicates", "procedure": "To test their hemolytic potential, compounds were incubated in the presence of phosphate-buffered saline (PBS)–washed human red blood cells. After 1-hour incubation at 200 mg/liter and 37°C, the samples were centrifuged (3220g), the supernatants were diluted in Dulbecco’s PBS, and optical density at 540 nm was determined. The hemolysis induced by the compound was calculated versus a 100% lysis control prepared with 2.5% Triton X-100 (table S4A)."}, "in vitro": {"assay": "in vitro", "format": "cell-based", "details": "human", "procedure": "(§2) The cytotoxicity of compounds was determined by determining the number of viable cells using the Sigma Cell Counting Kit-8 (WST-8). HeLa cells were incubated at 37°C and 5% CO2 for 24 hours, after which the medium was replaced with fresh medium containing dilutions of compounds. […]"}, "HeLa cells": {"test_system": "HeLa cells", "assay": "in vitro", "format": "cell-based", "procedure": "as §2"}, "[4]": {"test_system": "Escherichia coli ATCC 25922 KdsD mutant", "assay": "microbe, parasite or virus in culture", "details": "Escherichia coli, ATCC25922, read-out: MIC Escherichia coli ATCC 25922 KdsD (2x)", "procedure": "as §1"}, "[5]": {"test_system": "Escherichia coli ATCC 25922 LptA E84D mutant", "assay": "microbe, parasite or virus in culture", "details": "Escherichia coli, ATCC25922, read-out: MIC Escherichia coli ATCC 25922 LptA E84D (1x)", "procedure": "as §1"}, "[6]": {"test_system": "K. pneumoniae ATCC 43816 (parent / WT)", "assay": "microbe, parasite or virus in culture", "details": "Klebsiella pneumoniae, ATCC43816, read-out: MIC Klebsiella pneumoniae ATCC 43816 WT", "procedure": "as §1"}, "[7]": {"test_system": "K. pneumoniae ATCC 43816 LptA Q62L mutant", "assay": "microbe, parasite or virus in culture", "details": "Klebsiella pneumoniae", "procedure": "as §1"}, "[8]": {"test_system": "K. pneumoniae NCTC 13443 (NDM-1) (parent / WT)", "assay": "microbe, parasite or virus in culture", "details": "Klebsiella pneumoniae", "procedure": "as §1"}, "[9]": {"test_system": "K. pneumoniae NCTC 13443 (NDM-1) LptA Q62L mutant", "assay": "microbe, parasite or virus in culture", "details": "Klebsiella pneumoniae", "procedure": "as §1"}, "[10]": {"test_system": "Klebsiella pneumoniae ATCC 43816 LapB mutant", "assay": "microbe, parasite or virus in culture", "details": "Klebsiella pneumoniae, ATCC43816, read-out: MIC Klebsiella pneumoniae ATCC 43816 LapB (1x)", "procedure": "as §1"}, "[11]": {"test_system": "Klebsiella pneumoniae ATCC 43816 LptA I36N mutant", "assay": "microbe, parasite or virus in culture", "details": "Klebsiella pneumoniae, ATCC43816, read-out: MIC Klebsiella pneumoniae ATCC 43816 LptA I36N (1x)", "procedure": "as §1"}, "[12]": {"test_system": "Klebsiella pneumoniae ATCC 43816 LptA I36S mutant", "assay": "microbe, parasite or virus in culture", "details": "Klebsiella pneumoniae, ATCC43816, read-out: MIC Klebsiella pneumoniae ATCC 43816 LptA I36S (1x)", "procedure": "as §1"}, "[13]": {"test_system": "Klebsiella pneumoniae ATCC 43816 LptA L116Q mutant", "assay": "microbe, parasite or virus in culture", "details": "Klebsiella pneumoniae, ATCC43816, read-out: MIC Klebsiella pneumoniae ATCC 43816 LptA L116Q (1x)", "procedure": "as §1"}, "[14]": {"test_system": "Klebsiella pneumoniae ATCC 43816 PglJ, PhnJ, ThiH mutant", "assay": "microbe, parasite or virus in culture", "details": "Klebsiella pneumoniae, ATCC43816, read-out: MIC Klebsiella pneumoniae ATCC 43816 PglJ, PhnJ, ThiH (1x)", "procedure": "as §1"}, "[15]": {"test_system": "Klebsiella pneumoniae NCTC 13443 LptA I36S mutant", "assay": "microbe, parasite or virus in culture", "details": "Klebsiella pneumoniae, NCTC13443, read-out: MIC Klebsiella pneumoniae NCTC 13443 LptA I36S (2x)", "procedure": "as §1"}, "[16]": {"test_system": "Klebsiella pneumoniae NCTC 13443 LpxC, LpxD mutant", "assay": "microbe, parasite or virus in culture", "details": "Klebsiella pneumoniae, NCTC13443, read-out: MIC Klebsiella pneumoniae NCTC 13443 LpxC, LpxD (1x)", "procedure": "as §1"}, "[17]": {"test_system": "Klebsiella pneumoniae NCTC 13443 YejM mutant", "assay": "microbe, parasite or virus in culture", "details": "Klebsiella pneumoniae, NCTC13443, read-out: MIC Klebsiella pneumoniae NCTC 13443 YejM (1x)", "procedure": "as §1"}, "[18]": {"test_system": "panel of 121 Enterobacteriaceae including CRE, MDR, and XDR isolates", "assay": "organism not typed", "procedure": "as §1"}, "[19]": {"test_system": "Enterobacteriaceae (CS, Col-S) (n=22)", "format": "cell-based", "details": "CLSI microdilution; minimum and maximum MIC of the panel; carbapenem sensitive, colistin sensitive", "procedure": "as §1"}, "E. coli ST131 (n=8)": {"test_system": "E. coli ST131 (n=8)", "assay": "MIC against isolate panel", "format": "cell-based, Escherichia coli", "details": "CLSI microdilution; minimum and maximum MIC of the panel", "procedure": "as §1"}}, "note": "Read-outs that look alike come from different tables or passages of the source. Where a SMILES comes first, the peptide text is derived from it. Bridges are numbered along the chain shown (N, C = ends). [ ]: non-standard residue; d: D form. Pen = CC(C)(S)[C@H](N)C(=O)O; dDab = NCC[C@@H](N)C(=O)O; Dab = NCC[C@H](N)C(=O)O"}
{"compound": "CC[C@H](C)[C@H](NC(=O)[C@@H](NC(=O)[C@@H]1CCCN1C(=O)[C@@H](N)C(C)C)[C@@H](C)CC)C(=O)N[C@@H](Cc1ccc(O)cc1)C(=O)N[C@@H]1C(=O)N[C@@H](CC(N)=O)C(=O)N[C@@H](CCCNC(=N)N)C(=O)N[C@@H](CCN)C(=O)N[C@@H]([C@@H](C)O)C(=O)N[C@H](CCN)C(=O)N[C@@H](CCCCN)C(=O)N[C@H](C(=O)N[C@@H](CCN)C(=O)N[C@@H](CCCNC(=N)N)C(=O)N[C@@H](Cc2ccc(O)cc2)C(=O)O)CSSC1(C)C", "note": "[Compound 3] (H-VPIIY[Pen]NR[Dab]T[dDab]KC[Dab]RY-OH; disulfide 6-13)", "values": [{"measurement": "MIC E. coli ATCC 25922 Parent", "setting": "[1]; CLSI method, parent strain", "result": 0.063, "unit": "micrograms per milliliter"}, {"measurement": "MIC E. coli ATCC 25922 Q62L mutant", "setting": "[2]; CLSI method, clone harboring LptA Q62L", "result": 1, "unit": "micrograms per milliliter"}, {"measurement": "MIC K. pneumoniae 968733 (CST-R) Parent", "setting": "[3]; CLSI method, colistin-resistant strain", "result": 0.25, "unit": "micrograms per milliliter"}, {"measurement": "Haemolysis % at 0.2 g/L", "setting": "human red blood cells", "result": 0, "unit": "%"}, {"measurement": "IC50 at 48 h", "setting": "in vitro", "result": 41, "unit": "µM"}, {"measurement": "IC50", "setting": "HeLa cells", "result": 40, "unit": "µM"}]}
{"compound": "C[C@@H](O)[C@H]1C(=O)N2C(C(=O)O)=C(S[C@@H]3CN[C@H](C(=O)N(C)C)C3)[C@H](C)[C@H]12", "note": "[Meropenem]", "values": [{"measurement": "MIC", "setting": "[1]; ATCC25922, read-out: MIC E. coli ATCC 25922 Parent", "result": 0.063, "unit": "µg/mL"}, {"measurement": "MIC", "setting": "[1]; ATCC25922, read-out: MIC Escherichia coli ATCC 25922 WT", "result": "≤ 0.06", "unit": "µg/mL"}, {"measurement": "MIC", "setting": "[2]; ATCC25922, read-out: MIC E. coli ATCC 25922 Q62L mutant", "result": 0.063, "unit": "µg/mL"}, {"measurement": "MIC", "setting": "[2]; ATCC25922, read-out: MIC Escherichia coli ATCC 25922 LptA Q62L (7x)", "result": "≤ 0.06", "unit": "µg/mL"}, {"measurement": "MIC", "setting": "[4]", "result": 0.13, "unit": "µg/mL"}, {"measurement": "MIC", "setting": "[5]", "result": "≤ 0.06", "unit": "µg/mL"}, {"measurement": "MIC", "setting": "[6]", "result": 0.13, "unit": "µg/mL"}, {"measurement": "MIC", "setting": "[7]; ATCC43816, read-out: MIC K. pneumoniae ATCC 43816 Q62L mutant", "result": 0.063, "unit": "µg/mL"}, {"measurement": "MIC", "setting": "[7]; ATCC43816, read-out: MIC Klebsiella pneumoniae ATCC 43816 LptA Q62L (4x)", "result": "≤ 0.06", "unit": "µg/mL"}, {"measurement": "MIC", "setting": "[8]; NCTC13443, read-out: MIC K. pneumoniae NCTC 13443 (NDM-1) Parent", "result": "> 8", "unit": "µg/mL"}, {"measurement": "MIC", "setting": "[8]; NCTC13443, read-out: MIC Klebsiella pneumoniae NCTC 13443 WT", "result": "> 64", "unit": "µg/mL"}, {"measurement": "MIC", "setting": "[9]; NCTC13443, read-out: MIC K. pneumoniae NCTC 13443 (NDM-1) Q62L mutant", "result": "> 8", "unit": "µg/mL"}, {"measurement": "MIC", "setting": "[9]; NCTC13443, read-out: MIC Klebsiella pneumoniae NCTC 13443 LptA Q62L (5x)", "result": "> 64", "unit": "µg/mL"}, {"measurement": "MIC", "setting": "[10]", "result": 0.13, "unit": "µg/mL"}, {"measurement": "MIC", "setting": "[11]", "result": "≤ 0.06", "unit": "µg/mL"}, {"measurement": "MIC", "setting": "[12]", "result": "≤ 0.06", "unit": "µg/mL"}, {"measurement": "MIC", "setting": "[13]", "result": "≤ 0.06", "unit": "µg/mL"}, {"measurement": "MIC", "setting": "[14]", "result": 0.13, "unit": "µg/mL"}, {"measurement": "MIC", "setting": "[15]", "result": "> 64", "unit": "µg/mL"}, {"measurement": "MIC", "setting": "[16]", "result": "> 64", "unit": "µg/mL"}, {"measurement": "MIC", "setting": "[17]", "result": "> 64", "unit": "µg/mL"}, {"measurement": "MIC", "setting": "[3]; Klebsiella pneumoniae, read-out: MIC K. pneumoniae 968733 (CST-R) Parent", "result": 0.031, "unit": "µg/mL"}, {"measurement": "MIC50", "setting": "[18]; read-out: MIC50 (n=121)", "result": "> 8", "unit": "µg/mL"}, {"measurement": "MIC90", "setting": "[18]; read-out: MIC90 (n=121)", "result": "> 64", "unit": "µg/mL"}, {"measurement": "MIC range Enterobacteriaceae (CS, Col-S) (n=22)", "setting": "[19]", "result": "≤0.06 to 0.5", "unit": "µg/mL"}, {"measurement": "MIC range E. coli ST131 (n=8)", "setting": "E. coli ST131 (n=8)", "result": "<=0.06-8 µg/mL"}]}
